Data taken from patent US10772911B2, “Cell free compositions for cellular restoration and methods of making and using same” (Advanced ReGen Medical Technologies, LLC, priority 2013, dated 2020).

What was measured:
Format in all cases: cell-based
[1] = tested on: senescence-associated secretory factors (SASF); assay: protein array of senescence-associated secretory factors; conditions: co-cultured in the presence of manumycin vs absence; FIG. 11
From the text: (§1) Receiver cell samples (i.e., R1, R2, and R3) were individually paired with donor cell samples (i.e., D1, D2, and D3) and the pairs co-cultured in a transwell culture cell for four weeks. The morphology of the cells was studied at 2 weeks into the co-culture and at 4 weeks of co-culture. Gene expression arrays, protein arrays, and telomere length experiments compared freshly defrosted cells from the collection tubes (referred to as the baseline donor cell sample or baseline receiver cell sample) with cells at the 4-week study endpoint (referred to as restored cell samples).
(§2) Protein array analyses were carried out using conditioned media from the baseline donor cell sample or baseline receiver cell sample. The conditioned media was mixed with like cellular protein extracts and applied to the custom-designed arrays which consisted of antibody probes for 68 factors linked to cellular aging and senescence, collectively referred to as the senescence-associated secretory factors (SASF). Quantitative PCR gene array analyses were carried out by extracting RNA from the baseline samples or the co-cultured donor and receiver samples. The data presented represents the average metric determined for either the baseline donor cell sample, the baseline receiver cell sample, or the restored cell sample. […]

restored cells = assay: cell morphology in transwell co-culture; conditions: co-cultured in the presence of 5 μM manumycin vs absence
From the text: as §1
The nature of the soluble particles passing through the permeable membrane in the transwell co-culture experiments was investigated. Specifically, transwell co-culture experiments were carried out in the presence or absence of manumycin. Manumycin, -[(1S,5S,6R)-5-hydroxy-5-[(1E,3E,5E)-7-[(2-hydroxy-5-oxo-1-cyclopenten-1-yl)amino]-7-oxo-1,3,5-heptatrien-1-yl]-2-oxo-7-oxabicyclo[4.1.0]hept-3-en-3-yl]-2E,4E,6R-trimethyl, 2,4-decadienamide, is an antibiotic that acts a potent and selective farnesytransferase inhibitor. Mannumycin is also known to inhibit the release of exosomes. […] Further support for the role of exosome/microvesicles in mediating the disclosed cellular restoration process is shown in FIG. 12.

telomere length = telomere length of restored cell sample; conditions: pair R1-D1, presence vs absence of manumycin; FIG. 12
From the text: In an embodiment, the donor cell sample, receiver cell sample, or both are subjected to at least one analytical technique to characterize the quality of the cell sample. Herein, the “quality” of the cell sample refers to factors used to characterize the cellular health of the sample and includes parameters such as the number and types of cells present in the sample; the ratio of senescent to non-senescent cells in the sample; the extent of expression of a group of genetic and/or protein biomarkers; the average telomere length of the cells in the sample; and the status of the innate immune function of the cells in the sample. Telomere length may be determined using any suitable methodology, for example, terminal restriction fragment (TRF) analysis. Innate immune function may be evaluated using any suitable methodology such as the ^51Cr cytotoxicity release natural killer cell assay. The donor cell sample quality may be an assessment of the ability of the cells in the sample to improve and/or restore one or more cellular functions of the cells in the receiver cell sample.
Receiver cell samples (i.e., R1, R2, and R3) were individually paired with donor cell samples (i.e., D1, D2, and D3) and the pairs co-cultured in a transwell culture cell for four weeks. The morphology of the cells was studied at 2 weeks into the co-culture and at 4 weeks of co-culture. […]

senescence-related genes = assay: quantitative PCR gene array of senescence-related genes; conditions: co-cultured in the presence of manumycin vs absence
From the text: as §1, §2

## CCCC[C@@H](C)/C=C(C)/C=C(\C)C(=O)NC1=C[C@@](O)(/C=C/C=C/C=C/C(=O)NC2=C(O)CCC2=O)[C@@H]2O[C@@H]2C1=O [manumycin, -[(1S,5S,6R)-5-hydroxy-5-[(1E,3E,5E)-7-[(2-hydroxy-5-oxo-1-cyclopenten-1-yl)amino]-7-oxo-1,3,5-heptatrien-1-yl]-2-oxo-7-oxabicyclo[4.1.0]hept-3-en-3-yl]-2E,4E,6R-trimethyl, 2,4-decadienamide]
[1]
  protein expression levels of restored cell samples: elevated levels of all proteins investigated
Restored cells
  morphology of restored cells: less robust morphology
Telomere length
  telomere length of restored cell sample: decreased
senescence-related genes
  gene expression of restored cell samples: did not display a change in expression levels similar to those observed in the absence of manumycin
